Literature values, collected in patent US20240197806A1, “EBELIN LACTONE OR BACOGENIN A1 ENRICHED COMPOSITION AND METHOD OF PREPARATION THEREOF” (priority 2022, published 2024).

How the values were obtained:
[1] = Ramasamy et al., PLoS One 2015
[2] = Ramasamy et al., PLoS One 2015; remark: listed apart in the source
5-HT2A receptors = 5-HT2A receptors (Homo sapiens, UniProt P28223); settings: read-out: Ki, binding to the 5-HT2A receptors
5-HT2A receptors, sequence (P28223 whole entry): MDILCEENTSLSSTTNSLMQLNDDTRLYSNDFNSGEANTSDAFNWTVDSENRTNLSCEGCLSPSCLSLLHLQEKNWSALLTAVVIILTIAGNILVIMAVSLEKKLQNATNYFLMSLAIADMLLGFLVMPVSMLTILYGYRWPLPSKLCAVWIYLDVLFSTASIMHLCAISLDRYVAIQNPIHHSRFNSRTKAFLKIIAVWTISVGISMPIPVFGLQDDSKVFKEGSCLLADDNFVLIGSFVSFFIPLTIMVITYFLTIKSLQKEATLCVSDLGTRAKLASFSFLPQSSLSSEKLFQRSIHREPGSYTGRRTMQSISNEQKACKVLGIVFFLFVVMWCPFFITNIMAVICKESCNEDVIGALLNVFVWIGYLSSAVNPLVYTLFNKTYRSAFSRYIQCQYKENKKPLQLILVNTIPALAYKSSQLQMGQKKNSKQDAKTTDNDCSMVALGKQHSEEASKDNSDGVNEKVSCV

Row | Compound | intestinal absorption [1] | ability to cross the blood brain barrier / blood brain barrier penetration [2] | Ki (5-HT2A receptors)
1 | CC1=CC(C)(C)O[C@@]1(C)C1C(=O)C[C@]2(CO)C1CCC1[C@@]3(C)CC[C@H](O)C(C)(C)C3CC[C@]12C (stereo partly drawn) [bacogenin A1] | same absorption parameters as jujubogenin and pseudojujubogenin | – | –
2 | CC(C)=C[C@@H]1CO[C@]23C[C@]4(CO2)[C@H](CC[C@@H]2[C@@]5(C)CC[C@H](O[C@@H]6OC[C@H](O)[C@H](O[C@@H]7O[C@H](CO)[C@@H](O)[C@H](O)[C@H]7O)[C@H]6O[C@@H]6O[C@@H](CO)[C@H](O)[C@H]6O)C(C)(C)[C@@H]5CC[C@]24C)[C@H]3[C@@]1(C)O [bacopasaponin C] | poor | not able to cross | –
3 | CC(C)=C[C@H]1C[C@](C)(O)[C@@H]2[C@H]3CC[C@@H]4[C@@]5(C)CC[C@H](O[C@@H]6OC[C@H](O)[C@H](O[C@@H]7O[C@H](CO)[C@@H](O)[C@H](O)[C@H]7O)[C@H]6O[C@@H]6O[C@@H](CO)[C@H](O)[C@H]6O)C(C)(C)[C@@H]5CC[C@@]4(C)[C@@]34CO[C@@]2(C4)O1 [bacopaside X] | poor | not able to cross | –
4 | CC(C)=C[C@H]1C[C@](C)(O)[C@H]2[C@H]3CC[C@@H]4[C@@]5(C)CC[C@H](O[C@@H]6O[C@H](CO)[C@@H](O)[C@H](O[C@@H]7O[C@H](CO)[C@@H](O)[C@H](O)[C@H]7O)[C@H]6O[C@@H]6O[C@@H](CO)[C@H](O)[C@H]6O)C(C)(C)[C@@H]5CC[C@@]4(C)[C@@]34CO[C@@]2(C4)O1 [bacoside A3] | poor | not able to cross | –
5 | CC(C)=C/C=C/C(C)=C/C1CCC2[C@@]3(C)CC[C@H](O)C(C)(C)C3CC[C@@]2(C)[C@@]12COC(=O)C2 (stereo partly drawn) [ebelin lactone] | – | very high | 4.21 µM
6 | CC(C)=CC1C[C@](C)(O)C2C3CCC4[C@@]5(C)CC[C@H](O)C(C)(C)C5CC[C@@]4(C)[C@]34CO[C@]2(C4)O1 (stereo partly drawn) [jujubogenin] | good | able to cross | –
7 | CC(C)=CC1COC23CC4(CO2)C(CCC2C5(C)CCC(O)C(C)(C)C5CCC24C)C3C1(C)O (stereo not drawn) [pseudojujubogenin] | good | able to cross | –
8 | bacopaside II | poor | not able to cross | –
